“And” between values parts separate entries of the source, which are not always exact repeats. Equal entries are not always repeated. Where two headings read alike, the source gives them in different places.
How the values were obtained:
KRAS G12D = KRAS G12D (Homo sapiens (Human), UniProt P01116+P62937, G12D); assay: Ras-Raf (BRAF RBD) disruption / FRET / MOA assay, KRAS G12D; assay type: biochemical; settings: Ras-Raf disruption/FRET/MOA assay; class symbols; read-out: KRAS G12D FRET data IC50
Procedure, shortened: (§1)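 TR-FRET read-out: a drop in ratio relative to DMSO wells marks disruption of the Ras:RAF complex, reported as IC50. Compounds (3-fold series, 10 points, top 30 μM final) incubated 3 h at 25° C before Eu-anti-His 10 nM and APC-anti-GST 50 nM, 1.5 h more.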

KRAS Q61H = KRAS Q61H (Homo sapiens (Human), UniProt P01116+P62937, Q61H); assay: Ras-Raf (BRAF RBD) disruption / FRET / MOA assay, KRAS Q61H; assay type: biochemical; settings: Ras-Raf disruption/FRET/MOA assay; class symbols; read-out: KRAS Q61H FRET data IC50
Procedure: (§2) The purpose of this biochemical assay is to measure the ability of test compounds to facilitate ternary complex formation between a nucleotide-loaded Ras isoform and cyclophilin A; the resulting ternary complex disrupts binding to a BRAF^RBD construct, inhibiting Ras signaling through a RAF effector.
(§3) […]. Compound is present in plate wells as a 10-point 3-fold dilution series starting at a final concentration of 30 μM. After incubation at 25° C. for 3 hours, a mixture of Anti-His Eu-W1024 and anti-GST allophycocyanin is then added to assay sample wells at final concentrations of 10 nM and 50 nM, respectively, and the reaction incubated for an additional 1.5 hours. […] Compounds that facilitate disruption of a Ras:RAF complex are identified as those eliciting a decrease in the TR-FRET ratio relative to DMSO control wells.
(§4) Note—The following protocol describes a procedure for monitoring disruption of K-Ras G12C (GMP-PNP) binding to BRAF^RBD by a compound of the invention. This protocol may also be executed substituting other Ras proteins or nucleotides.
(§5) The purpose of this biochemical assay was to measure the ability of test compounds to facilitate ternary complex formation between a nucleotide-loaded K-Ras isoform and Cyclophilin A; the resulting ternary complex disrupts binding to a BRAF^RBD construct, inhibiting K-Ras signaling through a RAF effector. Data is reported as IC50 values.
as §3, with “Compound was” for “Compound is”, “allophycocyanin was” for “allophycocyanin is”, “a K-Ras:RAF” for “a Ras:RAF”, “complex were” for “complex are”

NRAS Q61R = NRAS Q61R (Homo sapiens (Human), UniProt P01111+P62937, Q61R); assay: Ras-Raf (BRAF RBD) disruption / FRET / MOA assay, NRAS Q61R; assay type: biochemical; settings: NRAS Q61R; Ras-Raf disruption/FRET/MOA assay; read-out: IC50* NRAS Q61R FRET data
Procedure: as §2, §3, §4, §5
as §3, with “Compound was” for “Compound is”, “allophycocyanin was” for “allophycocyanin is”, “a K-Ras:RAF” for “a Ras:RAF”, “complex were” for “complex are”

NRAS Q61K = NRAS Q61K (Homo sapiens (Human), UniProt P01111+P62937, Q61K); assay: Ras-Raf (BRAF RBD) disruption / FRET / MOA assay, NRAS Q61K; assay type: biochemical; settings: NRAS Q61K; Ras-Raf disruption/FRET/MOA assay; read-out: IC50* NRAS Q61K FRET data
Procedure: as §2, §3, §4, §5
as §3, with “Compound was” for “Compound is”, “allophycocyanin was” for “allophycocyanin is”, “a K-Ras:RAF” for “a Ras:RAF”, “complex were” for “complex are”

NRAS G12C = NRAS G12C (Homo sapiens (Human), UniProt P01111+P62937, G12C); assay: Ras-Raf (BRAF RBD) disruption / FRET / MOA assay, NRAS G12C; assay type: biochemical; settings: read-out: IC50* NRAS G12C FRET data
Procedure, shortened: as §1

KRAS G12S = KRAS G12S (Homo sapiens (Human), UniProt P01116+P62937, G12S); assay: Ras-Raf (BRAF RBD) disruption / FRET / MOA assay, KRAS G12S; assay type: biochemical; settings: Ras-Raf disruption/FRET/MOA assay; class symbols; read-out: KRAS G12S FRET data IC50
Procedure, shortened: as §1

KRAS G12V = KRAS G12V (Homo sapiens (Human), UniProt P01116+P62937, G12V); assay: Ras-Raf (BRAF RBD) disruption / FRET / MOA assay, KRAS G12V; assay type: biochemical; settings: read-out: IC50* KRAS G12V FRET data
Procedure, shortened: as §1

KRAS WT = KRAS WT (Homo sapiens (Human), UniProt P01116+P62937); assay: Ras-Raf (BRAF RBD) disruption / FRET / MOA assay, KRAS WT; assay type: biochemical; settings: read-out: IC50* KRAS WT FRET data
Procedure, shortened: as §1

[1] = tested on: NCI-H358 cells (K-Ras G12C); assay: Potency assay: pERK in NCI-H358 cells; assay type: cell-based, human; settings: H358 KRAS G12C, read-out: pERK EC50
Procedure, shortened: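 Inhibition of cellular pERK after a 4 h treatment, detected by AlphaLISA or In-Cell Western. IC50 from a four-parameter concentration-response fit.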

KRAS G13D = KRAS G13D (Homo sapiens (Human), UniProt P01116+P62937, G13D); assay: Ras-Raf (BRAF RBD) disruption / FRET / MOA assay, KRAS G13D; assay type: biochemical; settings: read-out: IC50* KRAS G13D FRET data
Procedure, shortened: as §1

NRAS WT = NRAS WT (Homo sapiens (Human), UniProt P01111+P62937); assay: Ras-Raf (BRAF RBD) disruption / FRET / MOA assay, NRAS WT; assay type: biochemical; settings: read-out: IC50* NRAS WT FRET data
Procedure: as §2, §3, §4, §5
as §3, with “Compound was” for “Compound is”, “allophycocyanin was” for “allophycocyanin is”, “a K-Ras:RAF” for “a Ras:RAF”, “complex were” for “complex are”

K-Ras G12C = K-Ras G12C (Homo sapiens (Human), UniProt P01116+P62937, G12C); assay: Ras-Raf (BRAF RBD) disruption / FRET / MOA assay, KRAS G12C; assay type: biochemical; settings: KRAS G12C; Ras-Raf disruption/FRET/MOA assay; read-out: IC50* KRAS G12C FRET data
Procedure, shortened: as §1

K-Ras G13C = K-Ras G13C (Homo sapiens (Human), UniProt P01116+P62937, G13C); assay: Ras-Raf (BRAF RBD) disruption / FRET / MOA assay, KRAS G13C; assay type: biochemical; settings: KRAS G13C; Ras-Raf disruption/FRET/MOA assay; read-out: IC50* KRAS G13C FRET data
Procedure, shortened: as §1

Chain of KRAS G12D (P01116-2 other isoform, or with tags, fused parts or gaps G12D): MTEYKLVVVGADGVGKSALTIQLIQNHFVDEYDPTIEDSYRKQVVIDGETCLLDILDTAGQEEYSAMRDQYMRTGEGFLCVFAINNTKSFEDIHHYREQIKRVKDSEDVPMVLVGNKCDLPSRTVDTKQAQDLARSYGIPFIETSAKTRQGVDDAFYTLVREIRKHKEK
Chain of KRAS G12D (P62937 whole entry): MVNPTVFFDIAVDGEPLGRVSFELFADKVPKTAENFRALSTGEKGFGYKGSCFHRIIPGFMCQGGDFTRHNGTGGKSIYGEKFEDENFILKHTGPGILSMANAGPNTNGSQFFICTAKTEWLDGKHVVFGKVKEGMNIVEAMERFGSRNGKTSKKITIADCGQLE
Chain of KRAS G12V (P01116-2 other isoform, or with tags, fused parts or gaps G12V): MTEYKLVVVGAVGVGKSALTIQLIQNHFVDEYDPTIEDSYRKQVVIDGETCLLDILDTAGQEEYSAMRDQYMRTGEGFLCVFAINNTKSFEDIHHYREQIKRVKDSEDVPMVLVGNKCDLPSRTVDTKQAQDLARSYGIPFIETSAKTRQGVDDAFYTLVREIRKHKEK
Chain of KRAS G12V (P62937 whole entry): as the sequence (P62937 whole entry) above
Chain of KRAS Q61H (P01116-2 other isoform, or with tags, fused parts or gaps Q61H): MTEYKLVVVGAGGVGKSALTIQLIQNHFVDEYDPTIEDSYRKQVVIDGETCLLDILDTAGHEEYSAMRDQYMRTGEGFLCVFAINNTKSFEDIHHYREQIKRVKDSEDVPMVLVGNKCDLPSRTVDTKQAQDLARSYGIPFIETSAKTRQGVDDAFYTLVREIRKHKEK
Chain of KRAS Q61H (P62937 whole entry, canonical isoform): as the sequence (P62937 whole entry) above
Chain of K-Ras G12C (P01116-2 other isoform, or with tags, fused parts or gaps G12C): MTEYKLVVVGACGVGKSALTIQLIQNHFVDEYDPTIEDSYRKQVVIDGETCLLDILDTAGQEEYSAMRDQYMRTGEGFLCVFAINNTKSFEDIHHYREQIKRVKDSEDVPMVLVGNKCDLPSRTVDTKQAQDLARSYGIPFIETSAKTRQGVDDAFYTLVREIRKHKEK
Chain of K-Ras G12C (P62937 whole entry): as the sequence (P62937 whole entry) above
Chain of KRAS WT (P01116-2 other isoform, or with tags, fused parts or gaps): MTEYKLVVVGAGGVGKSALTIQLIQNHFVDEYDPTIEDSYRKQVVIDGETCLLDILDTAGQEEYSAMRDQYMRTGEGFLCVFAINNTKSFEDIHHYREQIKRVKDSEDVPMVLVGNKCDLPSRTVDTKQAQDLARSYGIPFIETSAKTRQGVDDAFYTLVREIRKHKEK
Chain of KRAS WT (P62937 whole entry): as the sequence (P62937 whole entry) above
Chain of NRAS G12C (P01111 whole entry G12C): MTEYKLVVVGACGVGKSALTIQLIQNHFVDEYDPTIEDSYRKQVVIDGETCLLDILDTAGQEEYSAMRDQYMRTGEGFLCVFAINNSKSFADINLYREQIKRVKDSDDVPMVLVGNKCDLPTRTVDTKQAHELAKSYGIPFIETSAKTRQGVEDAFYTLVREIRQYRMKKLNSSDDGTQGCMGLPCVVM
Chain of NRAS G12C (P62937 whole entry): as the sequence (P62937 whole entry) above
Chain of NRAS Q61K (P01111 whole entry Q61K): as the sequence (P01111 whole entry G12C) above, with C12G, Q61K counted along it
Chain of NRAS Q61K (P62937 whole entry): as the sequence (P62937 whole entry) above
Chain of K-Ras G13C (P01116-2 other isoform, or with tags, fused parts or gaps G13C): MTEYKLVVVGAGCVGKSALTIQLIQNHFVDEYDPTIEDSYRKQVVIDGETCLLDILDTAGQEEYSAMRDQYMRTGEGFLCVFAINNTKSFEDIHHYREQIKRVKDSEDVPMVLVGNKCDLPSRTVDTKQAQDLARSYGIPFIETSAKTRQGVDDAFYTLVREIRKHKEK
Chain of K-Ras G13C (P62937 whole entry): as the sequence (P62937 whole entry) above
Chain of KRAS G13D (P01116-2 other isoform, or with tags, fused parts or gaps G13D): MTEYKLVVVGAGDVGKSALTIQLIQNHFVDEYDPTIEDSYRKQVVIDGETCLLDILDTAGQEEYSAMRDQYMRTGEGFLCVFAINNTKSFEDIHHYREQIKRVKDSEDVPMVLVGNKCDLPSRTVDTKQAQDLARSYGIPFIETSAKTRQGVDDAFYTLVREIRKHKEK
Chain of KRAS G13D (P62937 whole entry): as the sequence (P62937 whole entry) above
Chain of NRAS Q61R (P01111 whole entry Q61R): as the sequence (P01111 whole entry G12C) above, with C12G, Q61R counted along it
Chain of NRAS Q61R (P62937 whole entry): as the sequence (P62937 whole entry) above
Chain of NRAS WT (P01111 whole entry): as the sequence (P01111 whole entry G12C) above, with C12G counted along it
Chain of NRAS WT (P62937 whole entry): as the sequence (P62937 whole entry) above
Chain of KRAS G12S (P01116-2 other isoform, or with tags, fused parts or gaps G12S): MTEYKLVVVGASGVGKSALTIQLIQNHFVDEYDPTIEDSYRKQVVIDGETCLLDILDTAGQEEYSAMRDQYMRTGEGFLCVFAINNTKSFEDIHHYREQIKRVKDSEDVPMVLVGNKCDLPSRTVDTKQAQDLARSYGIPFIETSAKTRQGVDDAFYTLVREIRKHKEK
Chain of KRAS G12S (P62937 whole entry): as the sequence (P62937 whole entry) above

IC50 (KRAS G12D)	IC50 (KRAS Q61H)	IC50 (NRAS Q61R)	IC50 (NRAS Q61K)	IC50 (KRAS G12S)	IC50 (KRAS G12V)	IC50 (KRAS WT)	EC50 ([1]; Homo sapiens, NCI-H358)	IC50 (KRAS G13D)	IC50 (NRAS WT)	IC50 (K-Ras G12C)	IC50 (K-Ras G13C)	Compound	IC50 (NRAS G12C)	EC50 [1]
100 to 1000 nM	10 to 100 nM	10 to 100 nM	10 to 100 nM	10 to 100 nM	10 to 100 nM	10 to 100 nM	< 5000 nM	100 to 1000 nM	10 to 100 nM	< 10 nM	10 to 100 nM	C=CC(=O)N1CCO[C@H]2CCN(C(=O)N(C)[C@H](C(=O)N[C@H]3Cc4nc(cs4)-c4ccc5c(c4)c(c(-c4cccnc4[C@H](C)OC)n5CC)CC(C)(C)COC(=O)[C@@H]4CCCN(N4)C3=O)C(C)C)C[C@@H]21 (atropisomer, axis not shown) [Example A609]	< 10 nM	
100 to 1000 nM	10 to 100 nM	10 to 100 nM	10 to 100 nM	10 to 100 nM	100 to 1000 nM	100 to 1000 nM	< 5000 nM	100 to 1000 nM	10 to 100 nM	< 10 nM	10 to 100 nM	CO[C@@H](C)c1ncccc1-c1c2c3cc(ccc3n1CC(F)(F)F)-c1nc(nn1C)C[C@H](NC(=O)[C@H](C(C)C)N(C)C(=O)C1(F)CCN(C(=O)C#CC(C)(C)N(C)C)CC1)C(=O)N1CCC[C@H](N1)C(=O)OCC(C)(C)C2 (atropisomer, axis not shown) [Example A577]	< 10 nM	

Compound	IC50 (KRAS G12D)	IC50 (KRAS Q61H)	IC50 (NRAS Q61R)	IC50 (NRAS Q61K)	IC50 (KRAS G12S)	IC50 (KRAS G12V)	IC50 (KRAS WT)	EC50 ([1]; Homo sapiens, NCI-H358)	IC50 (KRAS G13D)	IC50 (NRAS WT)	IC50 (K-Ras G12C)	IC50 (K-Ras G13C)	IC50 (NRAS G12C)	EC50 [1]
C=CC(=O)C1C[C@@H](C(=O)N(C)[C@H](C(=O)N[C@H]2Cc3cc(O)cc(c3)-c3ccc4c(n3)c(c(-c3ccccc3CCOC)n4CC)CC(C)(C)COC(=O)[C@@H]3CCCN(N3)C2=O)C(C)C)CN1 (stereo partly drawn) [Example A211]	> 10000 nM	1000 to 10000 nM	> 10000 nM	1000 to 10000 nM	1 µM to 10 µM and > 10 µM (3×)	1 µM to 10 µM and > 10 µM (3×)	> 10000 nM	< 5000 nM	> 10000 nM	1000 to 10000 nM	100 nM to 1 µM and 1 µM to 10 µM and > 10 µM (2×)	> 10000 nM	100 nM to 1 µM and 1 µM to 10 µM and > 10 µM (2×)	
C=CC(=O)N1CC[C@H](C(=O)N(C)[C@H](C(=O)N[C@H]2Cc3cc(O)cc(c3)-c3ccc4c(c3)c(c(-c3cc(CN(C)C)cnc3[C@H](C)OC)n4CC)CC(C)(C)COC(=O)[C@@H]3CCCN(N3)C2=O)C(C)C)C1 (atropisomer, axis not shown) [Example A537]	100 to 1000 nM	10 to 100 nM	100 to 1000 nM	100 to 1000 nM	10 to 100 nM	10 to 100 nM	10 to 100 nM		10 to 100 nM	10 to 100 nM		10 to 100 nM	< 10 nM	< 5000 nM
